Measured values as given in ChEMBL document CHEMBL1201862, “PubChem BioAssay data set” (2004).
Calls of active or inactive are those of the source.

Legend:
Keap1/Nrf2 = Keap1/Nrf2 (Homo sapiens, UniProt Q14145); experiment: disruptors of Keap1 binding to Nrf2 peptide – biochemical, fluorescence polarization, cherry-picked samples, dose response (AID 588683)
[1] = target: Glucose-6-phosphate 1-dehydrogenase (Homo sapiens, UniProt P11413); experiment: inhibition of Homo sapiens G6PD, dose series – biochemical, fluorescence, selectivity assay for P. falciparum G6PD inhibitor project, dose response (AID 504792); format: functional
[2] = target: T1, Corticotropin-releasing factor receptor 2/Corticotropin-releasing factor-binding protein (Homo sapiens, UniProt P24387+Q13324); experiment: activators of CRF receptor 2 with binding protein – uHTS hits, confirmation (AID 602473); format: functional; settings: read-out: EC50_Mean
T1 sequence (Q13324 whole entry): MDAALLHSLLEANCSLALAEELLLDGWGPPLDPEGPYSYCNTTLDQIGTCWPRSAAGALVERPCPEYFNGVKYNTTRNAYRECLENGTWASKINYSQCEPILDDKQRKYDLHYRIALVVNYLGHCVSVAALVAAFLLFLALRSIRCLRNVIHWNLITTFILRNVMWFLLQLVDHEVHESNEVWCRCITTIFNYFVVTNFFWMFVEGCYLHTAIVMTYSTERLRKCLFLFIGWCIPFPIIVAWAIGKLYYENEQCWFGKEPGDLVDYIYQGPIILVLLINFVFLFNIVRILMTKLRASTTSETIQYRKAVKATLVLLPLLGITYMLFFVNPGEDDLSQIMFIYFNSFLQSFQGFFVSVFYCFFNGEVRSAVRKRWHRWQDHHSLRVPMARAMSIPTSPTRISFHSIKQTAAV
T1 sequence (P24387 whole entry): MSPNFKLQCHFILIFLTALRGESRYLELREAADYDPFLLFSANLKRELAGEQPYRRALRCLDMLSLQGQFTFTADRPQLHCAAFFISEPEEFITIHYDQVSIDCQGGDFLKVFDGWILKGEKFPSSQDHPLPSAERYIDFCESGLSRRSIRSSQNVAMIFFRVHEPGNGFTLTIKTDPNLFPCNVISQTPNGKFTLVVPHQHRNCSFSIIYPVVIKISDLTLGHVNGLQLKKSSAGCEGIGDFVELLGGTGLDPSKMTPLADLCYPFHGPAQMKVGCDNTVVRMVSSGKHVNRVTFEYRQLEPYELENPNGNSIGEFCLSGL

[3] = target: T2, Rac GTPase-activating protein 1 (Homo sapiens, UniProt Q9H0H5); experiment: blockers of MgcRacGAP-driven Rac1 GTP hydrolysis – biochemical, ADP Hunter fluorescence, primary and confirmatory, confirmation (AID 624330); format: functional
T2 sequence (Q9H0H5 whole entry): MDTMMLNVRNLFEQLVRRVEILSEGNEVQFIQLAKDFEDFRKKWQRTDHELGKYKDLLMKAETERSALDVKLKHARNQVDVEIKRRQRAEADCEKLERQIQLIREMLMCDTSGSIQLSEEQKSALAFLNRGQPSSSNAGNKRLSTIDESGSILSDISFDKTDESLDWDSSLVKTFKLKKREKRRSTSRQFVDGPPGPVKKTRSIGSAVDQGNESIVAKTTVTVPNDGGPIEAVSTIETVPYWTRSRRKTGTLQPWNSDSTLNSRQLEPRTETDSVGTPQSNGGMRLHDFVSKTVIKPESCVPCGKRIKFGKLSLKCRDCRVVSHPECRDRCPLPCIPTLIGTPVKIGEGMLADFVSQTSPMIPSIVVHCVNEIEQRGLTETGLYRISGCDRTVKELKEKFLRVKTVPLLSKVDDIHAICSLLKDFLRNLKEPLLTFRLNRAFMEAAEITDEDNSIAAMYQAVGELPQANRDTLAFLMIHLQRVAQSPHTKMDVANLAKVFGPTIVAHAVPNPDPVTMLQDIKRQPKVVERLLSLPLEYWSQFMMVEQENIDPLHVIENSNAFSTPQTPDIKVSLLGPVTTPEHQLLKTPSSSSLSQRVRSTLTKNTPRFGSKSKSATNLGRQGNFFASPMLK

Escherichia coli [4] = experiment: microbe, parasite or virus in culture
HeLa = experiment: ATP-based viability loss in HeLa cells – cell-based, CellTiter-Glo luminescence, cherry-pick samples, cytotoxicity control for MITF activator project, dose response (AID 540259); format: functional; settings: Homo sapiens
Escherichia coli [5] = experiment: microbe, parasite or virus in culture; remark: listed apart in the source
HEK293 = experiment: cells; format: functional, cell-based; settings: Homo sapiens
[6] = target: T3, Nuclear receptor subfamily 0 group B member 1 (Homo sapiens, UniProt P51843); experiment: Luminescence-based cell-based high throughput dose response assay for inhibitors of the orphan nuclear receptor subfamily 0, group B, member 1 (DAX1; NR0B1). [Related pubchem assays (depositor defined):AID504766, AID504790]; format: functional
T3 sequence (P51843 whole entry): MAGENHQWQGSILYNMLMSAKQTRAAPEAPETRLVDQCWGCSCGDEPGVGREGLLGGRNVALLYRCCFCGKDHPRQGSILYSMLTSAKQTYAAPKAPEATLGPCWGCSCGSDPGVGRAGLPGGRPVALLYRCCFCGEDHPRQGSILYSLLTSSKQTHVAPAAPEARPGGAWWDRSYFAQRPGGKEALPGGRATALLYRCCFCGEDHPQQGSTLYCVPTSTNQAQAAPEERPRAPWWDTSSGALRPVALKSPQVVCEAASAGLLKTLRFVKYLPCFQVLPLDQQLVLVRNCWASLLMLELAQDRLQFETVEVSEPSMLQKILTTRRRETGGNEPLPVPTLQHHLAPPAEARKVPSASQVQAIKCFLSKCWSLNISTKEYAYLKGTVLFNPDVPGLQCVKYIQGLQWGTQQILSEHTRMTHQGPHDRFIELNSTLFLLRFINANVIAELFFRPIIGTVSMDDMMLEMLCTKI

[7] = NIH-3T3 fibroblast cytotoxicity, dose response, cytotoxicity control, cell-based, fluorescence, Alamar Blue, secondary assay (AID 2327); format: functional;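 note: NIH-3T3 mouse fibroblasts cultured with fluconazole at 8 µg/mL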
Beta Lactamase = Beta Lactamase (Pseudomonas aeruginosa, UniProt Q932Y6); experiment: BLA reporter interference, concentration series – BLA reporter cells, FRET fluorescence, artefact control for TLR9-MyD88 binding inhibitor project, dose response (AID 588341); format: cell-based;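 note: cell based assay in CHO-K1 cells stably expressing beta-lactamase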
CHO = CHO cell viability loss, potency – luminescence, cytotoxicity control for TLR9-MyD88 binding inhibitor project, dose response (AID 588339); format: functional, cell-based, hamster; settings: Cricetulus griseus;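 note: CHO cells stably coexpressing TLR9 and MyD88 fusions from primary screen; compound exposure lasted 48 hours before viability readout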
[8] = target: Dual specificity tyrosine-phosphorylation-regulated kinase 1A (Rattus norvegicus, UniProt Q63470); format: biochemical, Homo sapiens
[9] = target: Beta-2 adrenergic receptor (Homo sapiens, UniProt P07550); experiment: ADRB2 activation measured by internalization – cell-based, FAP fluorogen, flow cytometry, cherry pick 1, dose response (AID 588763); format: functional
[10] = target: T4, Polyadenylate-binding protein 1 (Homo sapiens, UniProt P11940); experiment: MLLE binding blockers, Cy5 peptide tracer – biochemical, fluorescence polarization, Cy5-PAM2 peptide, secondary, miRNA deadenylation inhibitor project, dose response (AID 602260); format: functional; settings: read-out: IC50_Mean
[11] = target: T4, Polyadenylate-binding protein 1; experiment: MLLE domain peptide-binding blockers, IC50 – biochemical, fluorescence polarization, FITC-PAM2 peptide, dose response (AID 602259); format: functional; settings: read-out: IC50_Mean
Large T antigen = Large T antigen (Simian virus 40, UniProt P03070); format: functional, Betapolyomavirus macacae;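 note: Confirmatory-stage PubChem screen for compounds that inhibit SV40 T antigen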
INS1 = experiment: INS-1E survival protection against cytokine death – cell-based, luminescence, retest, dose response (AID 449756); format: functional; settings: Rattus norvegicus;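 note: cell death triggered by IL-1 beta plus TNF-alpha plus IFN-gamma mixture; protective hits raise ATP signal compared with cytokine alone wells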
[12] = Luminescence Cell-Based Dose Confirmation HTS to Identify Activators of 5'UTR Stem-Loop Driven Alpha-Synuclein mRNA Translation in H4 Neuroglioblastoma Cells. [Related pubchem assays: 1829 (Project Summary), 1814 (Primary HTS)]; format: functional
Genome polyprotein = Genome polyprotein (dengue virus type 2, UniProt P29990); experiment: flavivirus cap methylation enzyme inhibition – biochemical, confirmation dose response, primary screen (AID 588689); format: functional
[13] = Luminescence Cell-Based Dose Response HTS to Identify Activators of Luciferase Translation or Activity in H4 […] Cells. [Related pubchem assays: 1829 (Project Summary), 1814 (Primary HTS)]; format: functional
Vero = experiment: viability of Vero cells under compound – cytotoxicity control for flavivirus capping enzyme inhibitors (AID 588742); format: functional; settings: Chlorocebus sabaeus
H4 = experiment: Luminescence Cell-Based Dose Response HTS to Identify Activators of 5'UTR Stem-Loop Driven Prion Protein mRNA Translation in H4 Neuroglioblastoma Cells. [Related pubchem assays: 1829 (Project Summary), 1814 (Primary HTS)]; format: functional; settings: Homo sapiens
[14] = target: Photoreceptor-specific nuclear receptor (Homo sapiens, UniProt Q9Y5X4); format: functional, cell-based;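 note: CHO-S cells with Gal4-NCOR and VP16-NR2E3 two-hybrid luciferase reporter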
H9c2 = experiment: cells; format: functional, cell-based; settings: Rattus norvegicus, H9c2, Myocardium;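 note: confirmatory concentration-response retest of ultra-high-throughput screening hits for modulation of myocardial damage; cell death induced by hydrogen peroxide oxidative stress; compound pretreatment for 60 min then peroxide exposure for 2 h; potency is for protecting the cells against peroxide damage rather than for killing them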
[15] = target: T5, Ubiquitin-conjugating enzyme E2 N (Homo sapiens, UniProt P61088); format: functional;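 note: Dose-response confirmation in a TR-FRET assay detecting UBC13-driven polyubiquitin chain formation, inhibition measured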
T5 sequence (P61088 whole entry): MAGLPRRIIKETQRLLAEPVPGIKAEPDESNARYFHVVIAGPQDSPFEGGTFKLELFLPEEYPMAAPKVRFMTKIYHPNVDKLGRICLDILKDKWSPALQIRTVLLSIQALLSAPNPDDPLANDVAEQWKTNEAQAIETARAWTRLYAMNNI

Sequence of Beta-2 adrenergic receptor (P07550 whole entry): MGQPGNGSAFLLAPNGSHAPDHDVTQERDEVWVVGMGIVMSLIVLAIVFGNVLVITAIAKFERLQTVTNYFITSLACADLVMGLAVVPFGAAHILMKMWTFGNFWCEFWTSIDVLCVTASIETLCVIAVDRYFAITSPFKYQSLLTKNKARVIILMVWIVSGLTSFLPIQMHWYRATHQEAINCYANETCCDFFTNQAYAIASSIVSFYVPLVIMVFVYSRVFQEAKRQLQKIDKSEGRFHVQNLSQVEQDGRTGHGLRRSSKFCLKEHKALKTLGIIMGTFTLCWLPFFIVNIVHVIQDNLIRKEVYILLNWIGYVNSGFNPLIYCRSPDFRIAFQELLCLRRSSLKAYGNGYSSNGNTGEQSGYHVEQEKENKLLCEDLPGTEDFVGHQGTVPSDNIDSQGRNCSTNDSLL
Sequence of Beta Lactamase (Q932Y6 whole entry, the tested form may be a part): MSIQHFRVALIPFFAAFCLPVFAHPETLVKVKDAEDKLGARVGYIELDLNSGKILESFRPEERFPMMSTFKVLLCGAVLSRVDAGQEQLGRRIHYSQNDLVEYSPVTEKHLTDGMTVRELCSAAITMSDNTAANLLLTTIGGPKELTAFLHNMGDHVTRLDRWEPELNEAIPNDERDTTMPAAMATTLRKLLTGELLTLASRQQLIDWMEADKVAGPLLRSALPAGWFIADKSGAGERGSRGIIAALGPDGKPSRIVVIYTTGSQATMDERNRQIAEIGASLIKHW
Sequence of Large T antigen (P03070 whole entry): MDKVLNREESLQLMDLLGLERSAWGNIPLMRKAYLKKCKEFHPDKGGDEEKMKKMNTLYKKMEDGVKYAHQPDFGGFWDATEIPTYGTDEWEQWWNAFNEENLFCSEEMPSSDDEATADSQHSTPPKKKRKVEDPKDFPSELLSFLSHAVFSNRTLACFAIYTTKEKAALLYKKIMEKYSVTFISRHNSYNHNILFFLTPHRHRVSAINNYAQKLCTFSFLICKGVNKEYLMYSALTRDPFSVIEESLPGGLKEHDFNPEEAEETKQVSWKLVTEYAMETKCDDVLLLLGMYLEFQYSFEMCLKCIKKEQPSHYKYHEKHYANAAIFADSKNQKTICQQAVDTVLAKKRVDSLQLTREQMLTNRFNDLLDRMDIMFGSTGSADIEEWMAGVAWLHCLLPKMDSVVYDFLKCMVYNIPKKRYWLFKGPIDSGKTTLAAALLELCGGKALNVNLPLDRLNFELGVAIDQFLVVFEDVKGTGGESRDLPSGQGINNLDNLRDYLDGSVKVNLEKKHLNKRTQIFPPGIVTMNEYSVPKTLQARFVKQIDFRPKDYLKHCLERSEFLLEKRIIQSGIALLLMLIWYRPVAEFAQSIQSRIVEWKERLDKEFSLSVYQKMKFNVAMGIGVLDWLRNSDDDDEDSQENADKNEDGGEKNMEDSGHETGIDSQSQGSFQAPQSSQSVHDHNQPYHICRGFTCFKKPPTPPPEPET
T4 sequence (P11940 whole entry, the tested form may be a part): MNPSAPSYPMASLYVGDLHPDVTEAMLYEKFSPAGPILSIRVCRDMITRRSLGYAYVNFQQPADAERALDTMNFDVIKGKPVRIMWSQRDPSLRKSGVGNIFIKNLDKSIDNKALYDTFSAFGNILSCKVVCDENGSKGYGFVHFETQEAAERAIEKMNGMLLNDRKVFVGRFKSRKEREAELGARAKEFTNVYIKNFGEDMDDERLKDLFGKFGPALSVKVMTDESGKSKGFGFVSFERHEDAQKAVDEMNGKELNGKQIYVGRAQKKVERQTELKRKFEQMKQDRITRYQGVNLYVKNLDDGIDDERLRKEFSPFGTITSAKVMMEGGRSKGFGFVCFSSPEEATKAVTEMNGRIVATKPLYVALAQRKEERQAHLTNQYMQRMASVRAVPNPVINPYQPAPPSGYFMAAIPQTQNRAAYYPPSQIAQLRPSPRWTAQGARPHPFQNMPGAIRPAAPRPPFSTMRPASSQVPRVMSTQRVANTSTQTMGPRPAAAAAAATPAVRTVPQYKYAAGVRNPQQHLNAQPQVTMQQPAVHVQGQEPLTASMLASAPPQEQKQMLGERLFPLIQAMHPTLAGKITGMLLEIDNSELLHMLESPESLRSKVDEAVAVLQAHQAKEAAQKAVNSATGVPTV
Sequence of Glucose-6-phosphate 1-dehydrogenase (P11413 whole entry): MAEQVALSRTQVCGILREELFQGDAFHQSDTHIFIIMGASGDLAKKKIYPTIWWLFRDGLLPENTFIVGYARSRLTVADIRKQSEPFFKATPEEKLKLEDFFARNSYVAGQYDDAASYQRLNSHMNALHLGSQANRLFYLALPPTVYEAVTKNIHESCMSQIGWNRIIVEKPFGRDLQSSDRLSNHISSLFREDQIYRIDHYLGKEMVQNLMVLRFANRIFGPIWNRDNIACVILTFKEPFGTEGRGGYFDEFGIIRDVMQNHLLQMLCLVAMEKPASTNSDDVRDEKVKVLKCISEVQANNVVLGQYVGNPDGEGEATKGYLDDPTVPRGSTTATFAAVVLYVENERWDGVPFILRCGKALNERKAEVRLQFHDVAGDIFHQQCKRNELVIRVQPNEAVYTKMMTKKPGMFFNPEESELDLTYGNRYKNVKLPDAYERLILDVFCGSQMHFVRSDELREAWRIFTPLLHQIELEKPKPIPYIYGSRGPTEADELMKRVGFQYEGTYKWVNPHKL
Sequence of Genome polyprotein (P29990 2492-3391 limits assumed): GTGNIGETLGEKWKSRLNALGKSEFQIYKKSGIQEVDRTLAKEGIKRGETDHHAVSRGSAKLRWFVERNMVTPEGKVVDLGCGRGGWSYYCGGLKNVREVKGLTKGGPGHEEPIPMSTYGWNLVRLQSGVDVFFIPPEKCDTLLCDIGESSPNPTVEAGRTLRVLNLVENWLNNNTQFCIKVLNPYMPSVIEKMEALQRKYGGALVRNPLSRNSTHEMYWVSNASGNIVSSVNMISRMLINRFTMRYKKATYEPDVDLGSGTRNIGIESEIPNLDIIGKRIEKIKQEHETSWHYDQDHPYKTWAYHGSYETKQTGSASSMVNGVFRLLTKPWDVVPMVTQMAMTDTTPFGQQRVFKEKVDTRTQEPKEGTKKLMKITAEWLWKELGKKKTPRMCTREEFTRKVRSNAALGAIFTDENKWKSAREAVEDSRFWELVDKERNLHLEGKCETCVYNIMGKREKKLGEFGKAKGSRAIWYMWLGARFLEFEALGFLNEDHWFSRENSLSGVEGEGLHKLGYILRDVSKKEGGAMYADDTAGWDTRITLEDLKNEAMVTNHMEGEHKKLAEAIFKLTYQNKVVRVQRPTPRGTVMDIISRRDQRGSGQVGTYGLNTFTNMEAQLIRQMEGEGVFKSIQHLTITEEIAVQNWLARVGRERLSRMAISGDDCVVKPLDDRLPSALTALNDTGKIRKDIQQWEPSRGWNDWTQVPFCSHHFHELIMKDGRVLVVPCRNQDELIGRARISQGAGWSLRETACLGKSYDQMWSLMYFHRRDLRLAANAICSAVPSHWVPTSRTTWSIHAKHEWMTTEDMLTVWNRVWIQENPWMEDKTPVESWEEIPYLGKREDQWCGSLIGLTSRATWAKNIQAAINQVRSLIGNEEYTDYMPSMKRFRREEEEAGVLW
Sequence of Keap1/Nrf2 (Q16236 whole entry): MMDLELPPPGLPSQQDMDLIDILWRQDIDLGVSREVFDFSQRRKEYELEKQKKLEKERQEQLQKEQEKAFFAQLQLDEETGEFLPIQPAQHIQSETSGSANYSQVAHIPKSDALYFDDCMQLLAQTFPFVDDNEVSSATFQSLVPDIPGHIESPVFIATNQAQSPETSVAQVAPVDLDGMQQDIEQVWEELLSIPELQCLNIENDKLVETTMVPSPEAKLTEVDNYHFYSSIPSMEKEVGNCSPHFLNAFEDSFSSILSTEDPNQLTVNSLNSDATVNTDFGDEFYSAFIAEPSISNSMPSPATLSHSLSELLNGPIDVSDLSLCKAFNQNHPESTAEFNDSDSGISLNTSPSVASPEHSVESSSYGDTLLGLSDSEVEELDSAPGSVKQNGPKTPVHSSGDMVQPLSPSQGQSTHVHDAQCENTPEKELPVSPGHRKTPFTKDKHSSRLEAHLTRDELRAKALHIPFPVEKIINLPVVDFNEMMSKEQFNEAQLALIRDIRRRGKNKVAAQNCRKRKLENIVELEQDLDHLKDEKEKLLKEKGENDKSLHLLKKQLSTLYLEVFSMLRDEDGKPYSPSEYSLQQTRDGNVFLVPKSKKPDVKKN
Sequence of Keap1/Nrf2 (Q14145 whole entry): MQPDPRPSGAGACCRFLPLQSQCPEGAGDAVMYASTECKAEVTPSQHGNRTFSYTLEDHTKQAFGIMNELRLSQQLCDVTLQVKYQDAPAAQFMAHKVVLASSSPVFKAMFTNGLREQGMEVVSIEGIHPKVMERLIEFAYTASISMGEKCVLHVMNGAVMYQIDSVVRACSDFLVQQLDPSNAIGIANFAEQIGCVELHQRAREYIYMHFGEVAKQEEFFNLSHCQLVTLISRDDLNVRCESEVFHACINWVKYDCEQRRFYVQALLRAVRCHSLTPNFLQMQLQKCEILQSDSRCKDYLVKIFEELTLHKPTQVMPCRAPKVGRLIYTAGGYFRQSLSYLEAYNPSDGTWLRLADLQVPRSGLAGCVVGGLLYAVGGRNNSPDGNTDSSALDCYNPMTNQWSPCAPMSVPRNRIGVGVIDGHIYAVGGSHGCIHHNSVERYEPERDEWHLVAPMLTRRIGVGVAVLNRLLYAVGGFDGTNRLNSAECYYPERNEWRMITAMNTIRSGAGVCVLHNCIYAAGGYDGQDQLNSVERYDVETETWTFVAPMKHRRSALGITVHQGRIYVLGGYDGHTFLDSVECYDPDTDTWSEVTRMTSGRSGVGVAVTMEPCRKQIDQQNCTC

Nc1ccc2c3c(cccc13)-c1ccccc1-2
AC50 (Keap1/Nrf2): 2.01 µM (active)
IC50 [1]: > 80 µM (inactive)
EC50 [2]: 4.79 µM (active)
IC50 [3]: 39.2 µM (active)

CCCCCN(C(=O)CCC(=O)OCC(=O)N(C)Cc1ccc(C)cc1)c1c(N)n(CCCC)c(=O)[nH]c1=O
AC50 (Escherichia coli [4]): > 380 µM (inactive)

C/C(Cl)=C/CSc1nn2c(=O)c3ccccc3nc2s1
AC50 (HeLa): 36.3 µM (active)

COc1ccccc1Nc1nc(C)cs1
AC50 (Escherichia coli [4]): 60.7 µM (active)
AC50 (Escherichia coli [5]): 26.8 µM (active)

CCc1nc(NC(C)(C)C)c2cnn(-c3ccccc3)c2n1
AC50 (HeLa): 134 µM (active)

c1cnc(SCCOc2ccc3c(c2)CCC3)nc1
IC50 (HEK293): > 67.6 µM (inactive)
IC50 [6]: > 67.6 µM (inactive)
EC50 [7]: > 160 µM (inactive)

Brc1cc(Br)c2nc(-c3ccc(N4CCOCC4)cc3)ccc2c1
IC50 (Beta Lactamase): 2.37 µM (active)
IC50 (CHO): > 49.8 µM (inactive)

N#C/C(=C\c1cn[nH]c1-c1ccc(Cl)cc1)C(=O)NCc1ccccc1
AC50 (Escherichia coli [4]): 300 µM (active)
AC50 (Escherichia coli [5]): 12.4 µM (active)

Oc1ccc(Nc2nc(-c3ccccc3)nc3ccccc23)cc1
AC50 [8]: 0.461 µM (active)

NC(=O)CC(NC(=O)c1cccc(Br)c1)c1ccc(N2CCN(c3ccccn3)CC2)c([N+](=O)[O-])c1 (configuration not stated)
AC50 [8]: 66.8 µM (active)
EC50 [9]: 0.225 µM (active)

Oc1cccc(NC(=S)N=Nc2c(O)[nH]c3ccccc23)c1
AC50 [8]: 12.4 µM (active)
IC50 [10]: > 66 µM (inactive)
IC50 [11]: > 66 µM (inactive)

CN(C(=O)c1cc2sccc2n1C)C1CCCCC1
AC50 (HeLa): 218 µM (active)

CCN(CC)c1ccc(-c2nc3cnccn3c2NC2CCCC2)cc1
IC50 (Beta Lactamase): 5.29 µM (active)
IC50 (Large T antigen): 21.9 µM (active)
IC50 (CHO): > 16.6 µM (inactive)

COC(=O)/C(=C1\Oc2ccc(C(C)(C)C)cc2S1)C(F)(F)F
AC50 (HeLa): 57.7 µM (active)

O=C1NC(=O)C2C1C(c1ccc([N+](=O)[O-])cc1)=NN2Cc1ccccc1 (configuration not stated)
IC50 (Beta Lactamase): 10.3 µM (inactive)
IC50 (CHO): > 49.8 µM (inactive)

NC(=O)CC(NC(=O)c1ccc(Br)cc1)c1ccc(N2CCN(c3ccccn3)CC2)c([N+](=O)[O-])c1 (configuration not stated)
EC50 [9]: 0.213 µM (active)

CC(=O)c1csc(Nc2ccccc2Cl)n1
IC50 (HEK293): > 67.6 µM (inactive)
IC50 [6]: > 67.6 µM (inactive)

O=[N+]([O-])c1ccc(-[n+]2ccc3ccccc3c2)c([N+](=O)[O-])c1
AC50 (INS1): 3.36 µM (active)
EC50 [12]: > 120 µM (not active)
EC50 [9]: 10.2 µM (inactive)
IC50 (Genome polyprotein): > 100 µM (active)
EC50 [13]: 11.4 µM (active)
CC50 (Vero): 24.9 µM (active)
EC50 (H4): > 120 µM (not active)
IC50 [1]: > 80 µM (inactive)
IC50 (Large T antigen): 79.1 µM (active)

Cc1ccc(S(=O)(=O)c2ccc([N+](=O)[O-])o2)cc1
IC50 [14]: 2.9 µM (active)
IC50 (Beta Lactamase): 11.2 µM (inactive)
IC50 (CHO): 0.745 µM (active)

CC(=O)Nc1ccc(S(=O)(=O)N(Cc2cccnc2)Cc2cc3ccccc3nc2O)cc1
EC50 [9]: 0.801 µM (active)
IC50 (H9c2): > 79 µM (inactive)

COC(=O)c1c(-c2ccc(S(C)(=O)=O)cc2)sc2ccc(OC)cc12
AC50 (HeLa): 28 µM (active)
IC50 [15]: > 20 µM (inactive)

CC(=O)NC(Cc1c[nH]c2ccccc12)C(=O)O (configuration not stated)
IC50 (HEK293): > 67.6 µM (inactive)
IC50 [6]: > 67.6 µM (inactive)

Cc1cc(C)c2c(N)c(C(=O)N/N=C/c3ccccc3)sc2n1
IC50 (HEK293): > 67.5 µM (inactive)
IC50 [6]: > 67.5 µM (inactive)

O=C(O)c1ccc(/C=N/Nc2nc3ccccc3[nH]2)cc1
IC50 (HEK293): > 67.6 µM (inactive)
IC50 [6]: > 67.6 µM (inactive)

COc1ccc(C(=O)/C=C/c2ccc(N(C)C)cc2)c(OC)c1
IC50 (Beta Lactamase): 4.71 µM (active)
IC50 (CHO): > 49.8 µM (inactive)

CS(=O)(=O)c1ccc([C@@H](O)[C@@H](CF)NC(=O)C(Cl)Cl)cc1 [FLORFENICOL]
AC50 (Escherichia coli [4]): 3.83 µM (active)
